The values that follow come from ChEMBL document CHEMBL2424564, “Vermelhotin, an anti-inflammatory agent, suppresses nitric oxide production in RAW 264.7 cells via p38 inhibition” (J Nat Prod, 2013).

The test system of data set [1] is RAW264.7. Nature of the data set: Antiinflammatory activity in mouse RAW264.7 cells assessed as inhibition of LPS-induced nitric oxide production incubated for 15 mins prior to LPS challenge measured after 20 hrs by Griess assay. It counts as functional, cell-based.
The subject of data set [2] is RAW264.7. Nature of the data set: Downregulation of iNOS mRNA expression in LPS-stimulated mouse RAW264.7 cells at 5.6 uM incubated for 15 mins prior to LPS stimulation measured after 6 hrs by qRT-PCR analysis (reference value: 503.95 no unit). It counts as functional.
The subject of data set [3] is RAW264.7. Nature of the data set: Downregulation of iNOS mRNA expression in LPS-stimulated mouse RAW264.7 cells at 16.7 uM incubated for 15 mins prior to LPS stimulation measured after 6 hrs by qRT-PCR analysis (reference value: 503.95 no unit). It counts as functional.
Data set [4] deals with RAW264.7. Nature of the data set: Downregulation of iNOS mRNA expression in LPS-stimulated mouse RAW264.7 cells incubated for 15 mins prior to LPS stimulation measured after 6 hrs by qRT-PCR analysis. It counts as functional, cell-based.
Data set [5] relates to RAW264.7. The data set is described as follows: Effect on JNK phosphorylation in LPS-stimulated mouse RAW264.7 cells at 1.9 to 16.7 uM incubated for 15 mins prior to LPS stimulation measured after 15 mins by Western blot analysis. It counts as cell-based.
The target of data set [6] is T1, MAP kinase p38 (Mus musculus) (UniProt P47811+O08911+Q9WUI1+Q9Z1B7). Nature of the data set: Inhibition of p38 phosphorylation in LPS-stimulated mouse RAW264.7 cells at 16.7 uM incubated for 15 mins prior to LPS stimulation measured after 15 mins by Western blot analysis. It counts as cell-based.
The test system of data set [7] is RAW264.7. The data set is described as follows: Downregulation of iNOS mRNA expression in LPS-stimulated mouse RAW264.7 cells at 1.9 uM incubated for 15 mins prior to LPS stimulation measured after 6 hrs by qRT-PCR analysis (reference value: 503.95 no unit). It counts as functional.
Data set [8] concerns RAW264.7. Nature of the data set: Antiinflammatory activity in mouse RAW264.7 cells assessed as inhibition of LPS-induced nitric oxide production at 50 uM incubated for 15 mins prior to LPS challenge measured after 20 hrs by Griess assay relative to control. It counts as functional.
Data set [9] deals with RAW264.7. Nature of the data set: Activation of NF-kappaB in mouse RAW264.7 cells assessed as inhibition of LPS-induced IkappaB degradation at 1.9 to 16.7 uM incubated for 15 mins prior to LPS stimulation measured after 15 mins by Western blot analysis. It counts as cell-based.
Data set [10] is described as follows: (§1) Cytotoxicity against mouse RAW264.7 cells assessed as cell survival after 20 hrs by SRB assay. It counts as cell-based. The following applies: RAW264.7 cells, read-out: Survival.
Data set [11] relates to RAW264.7. The data set is described as follows: Downregulation of iNOS protein expression in LPS-stimulated mouse RAW264.7 cells incubated for 15 mins prior to LPS stimulation measured after 20 hrs by Western blot analysis. It counts as functional, cell-based.
For data set [12], the target named is T1, MAP kinase p38 (Mus musculus). The data set is described as follows: Inhibition of p38 phosphorylation in LPS-stimulated mouse RAW264.7 cells incubated for 15 mins prior to LPS stimulation measured after 15 mins by Western blot analysis. It counts as cell-based.
Data set [13] relates to RAW264.7. The data set is described as follows: Effect on ERK phosphorylation in LPS-stimulated mouse RAW264.7 cells at 1.9 to 16.7 uM incubated for 15 mins prior to LPS stimulation measured after 15 mins by Western blot analysis. It counts as cell-based.
Data set [14] has as its system RAW264.7. Nature of the data set: Downregulation of iNOS mRNA expression in LPS-stimulated mouse RAW264.7 cells at 16.7 uM incubated for 15 mins prior to LPS stimulation measured after 6 hrs by qRT-PCR analysis relative to vehicle-treated control. It counts as functional.
For data set [15], the system named is RAW264.7. The data set is described as §1. The following applies: raw264.7, 20 h. It counts as cell-based.

The structures appear in SMILES notation. The source made the active and inactive calls. The calls are words filed in the database; no cut-off is given here. Bounds are passed on as bounds.

For `CNC(=N)NCCC[C@H](N)C(=O)O` [TILARGININE], the IC50 in the data set with RAW264.7 [1] was determined as 21.7 µM.
With `C/C=C/C1=CC=C/C(=C2\C(=O)CNC2=O)O1` [VERMELHOTIN], the entries for the “fold change (FC)” value in the data set with RAW264.7 [2], in the data set with RAW264.7 [3] and in the data set with RAW264.7 [7] were 144.02, 13.72 and 203.39, respectively. For the same molecule, the 50% inhibitory concentration (IC50) in the data set with RAW264.7 [1] is 5.35 µM. The inhibition result (in the data set on RAW264.7 [4]; with RAW264.7 [11]; in data set [12]) was “Dose-dependent effect” throughout. For the same molecule, the outcome in the data set with RAW264.7 [5] and in the data set with RAW264.7 [13] was inactive. The inhibition entry in [6] is “Active”. Moreover, in the data set with RAW264.7 [8], the inhibition at 50 µM was not below 80%. In the data set on RAW264.7 [9], the outcome was Active. The viability at 20 h in data set [10] is more than 80%. Also, the inhibition at 16.7 µM in the data set with RAW264.7 [14] was more than 95%.
As for `C/C=C(\C)c1c(Br)c(O)c(C)c2c1Oc1cc(O)c(Br)c(C)c1C(=O)O2`, the IC50 with RAW264.7 [1] turned out to be 23.7 µM. In addition, in the data set on RAW264.7 [8], the inhibition at 50 µM was not below 80%. For the same molecule, the Activity entry in the data set with RAW264.7 [15] is “Toxic”.
`Cc1cc(O)c2c(c1O)C(=O)c1cc(O)cc(O)c1C2=O` [CATENARIN]: the IC50 with RAW264.7 [1] worked out at 41.3 µM. The inhibition at 50 µM in the data set on RAW264.7 [8] is not below 80%. In data set [10], the viability at 20 h was more than 80%.
Taken in the same sequence, the figures for `C/C=C(\C)c1cc(O)c(C)c2c1Oc1cc(O)c(Cl)c(C)c1C(=O)O2` were 36.1 µM, not below 80% and more than 80%.
With `CC[C@@H](C)C[C@]1(C)C=C/C(=C2/C(=O)O[C@H](CC(=O)OC)C2=O)O1`, the concentration for half-maximal inhibition (IC50) in the data set with RAW264.7 [1] turned out to be 6.82 µM. The inhibition at 50 µM with RAW264.7 [8] is not below 80%. In the data set on RAW264.7 [15], the Activity entry is given as “Toxic”.
